Patent EP1039902B1, “INHIBITORS OF GAP JUNCTION COMMUNICATION” (THE SCRIPPS RESEARCH INSTITUTE, priority 1997, dated 1999)
“Also recorded” adds a separate entry of the source.

Columns and labels:
[1] = animals, ip or iv injection; cited from earlier work
[2] = system: rat glial cell gap junction; experiment: Gap junction dye coupling assay (Lucifer yellow dye transfer; microinjection or scrape loading); type: cell-based
Procedure: (§1) Rat glial cells (Suter et al., 1987) obtained from Dr. Trosko's laboratory were cultured in standard plastic tissue cultureware in Richter's Improved Minimal Essential Medium (Irvine Scientific, Santa Ana, CA), supplemented with 10% fetal calf serum and 50 µg/ml gentamicin sulfate, and incubated in a humidified atmosphere of 95% air/5% CO2 at 37°C. The cells were passaged by trypsinization and used at passages 4-8. BHK (baby hamster kidney) cells that were stably transfected with a β1 connexin cDNA (Kumar et al., 1995) were cultured in DMEM medium supplemented with 5% fetal calf serum and 50 µg/ml gentamicin sulfate, and incubated in a humidified atmosphere of 95% air/5% CO2 at 37° C. In order to induce β1 connexin expression in the BHK cells, 100 µM zinc acetate was added to culture medium for 8-18 hours when the cell culture was about 90% confluent.
(§2) Gap junctional communication in glial cell and BHK/β1 cell cultures was assayed by microinjection of 5% Lucifer yellow CH dye in 0.1 M LiCl solution, and quantitated by determining the number of directly adjacent, neighboring cells that received dye (dye-coupling). Micropipettes were loaded with the dye solution by backfilling. Cells were visualized using a Nikon Diaphot inverted phase contrast/ epifluorescent microscope, and impaled with dye-filled micropipettes using an Eppendorf microinjector (model 5246). Five minutes after dye-injection, the transfer of dye to directly adjacent cells was determined using epifluorescent illumination. For each treatment condition, ten cells were microinjected in each of three dishes, the total number of dye-coupled neighboring cells was calculated and compared to determine the % dye-coupling. For scrape loading measurements, Lucifer yellow CH (0.05% dye in PBS) was loaded intracellularly by cutting or scraping cells in the monolayer with a sharp knife. The dye solution was left in the dish for 90 seconds, then the solution was discarded, and the dish subsequently washed with PBS. The cells were examined for dye transfer with an inverted epifluorescence microscope, and the degree of communication was assessed by determining the extent of Lucifer yellow transfer into contiguous cells.

BHK/β1 cells = experiment: Gap junction dye transfer between β1 connexin-transfected BHK cells; type: cell-based, baby hamster
Procedure: as §1, §2

α1 connexin = experiment: Immunoblotting of α1 connexin phosphorylation isoforms; type: cell-based, rat
Procedure: Plasma membrane fractions containing gap junctions were obtained after hypotonic alkali extraction of the glial cells. The extracted protein was dissolved in 2% SDS and the total protein was determined using the Bio-Rad DC Protein Assay kit (Bio-Rad Corp.). 10 µg of protein was electrophoresed by 10% SDS-PAGE, and subsequently blotted electrophoretically on to Immobilon-P membranes (Millipore Corp.). Gap junction protein was detected using anti-α1 connexin polyclonal rabbit antibodies, and the HRP/Chemiluminescence detection kit (Amersham Corp.) following the manufacturer's instructions.

rat glial cells [3] = experiment: Calcium wave propagation (Fluo-3, mechanical stimulation); type: cell-based
Procedure: Rat glial cells were loaded with 5 µM Fluo-3/AM (Calbiochem) in Hank's balanced salt solution containing 25 mM HEPES buffer (HBSS/HEPES) for 1 hour, at which point the loading buffer was exchanged for new HBSS/HEPES buffer. The cell cultures were then left at room temperature for at least 30 minutes. Mechanical stimulation of a single cell was performed as follows: a glass micropipette (tip diameter of approximately 0.5 µm) was micro-manipulated downward on to a single cell causing a transient deformation of the cell membrane. The calcium image was then examined with an inverted fluorescence microscope, and photographed with a digital fluorescence microscope (excitation = 506 nm, emmision = 526 nm). The degree of calcium wave propagation was quantitated by counting at different time points the number of transmitting cells in one linear direction away from the stimulated cell. Junctional dye transfer rates were simultaneously examined by microinjection of Lucifer yellow CH in the same dishes; the methods for dye transfer assay was described in assay procedures, gap junction dye coupling assays. For calcium wave and dye transfer studies, the drug was preincubated with the glial cells for 10 minutes, and the drug was left in the experimental solution throughout the examination. All measurements were performed at room temperature.

[4] = system: mammalian myocardial cells; experiment: Gap junctional communication between myocardial cells (preliminary analysis); type: cell-based; conditions: unpublished observations
rat glial cells [5] = experiment: Gap junction electrical coupling assay (double whole cell patch recording); type: cell-based; conditions: 50 µM
Procedure: Junctional conductance was measured using double whole cell patch recording performed on pairs of rat glial cells as described (Miller et al., (1992) J Mem. Biol. 128, 91-102) with a pipette solution of (in […]): Kaspartate 160, EGTA 10, CaCl2 2, HEPES 10 (pH 7.2), ATP 4. The external solution contained (in mM): NaCl 160, KCl 4.5, CaCl2 2, MgCl2 1, HEPES 10, pH 7.4. Both cells were held at -40 mV and pulses to -20 mV were alternately applied to each cell. Holding currents were subtracted in the records shown. Cells that were examined were generally in contact with other cells. The electrical conductance was calculated as the junctional current divided by 20 mV. All dye-coupling and conductance studies were performed at room temperature.

## CCCCCCCC/C=C\CCCCCCCC(N)=O [oleamide, cis-9-octadecenamide]
[1]
  induction of physiological sleep: induce physiological sleep
[2]; 20 µM, preincubation 4 h
  inhibition of glial cell dye transfer: significantly inhibited
[2]; 50 µM for 10 min
  block of intercellular dye transfer, microinjected Lucifer yellow: completely blocked intercellular dye transfer
[2]; 50 µM, 4 h prior to injection of Lucifer yellow (dose-response)
  inhibition of dye transfer: complete inhibition
[2]; 50 µM, then fresh media without oleamide
  recovery of dye transfer after removal of oleamide: Complete recovery of dye transfer to control levels was observed within one hour
[2]; Rattus norvegicus, Glial cell, read-out: inhibition of dye transfer
  inhibition at 20 µM: ~50%
[2]; continually exposed for up to 24 h
  restoration of dye-coupling under continual exposure: no restoration of dye-coupling
[2]; culture media changed
  time for junctional communication to recover to control levels after removal of oleamide: ≤ 1 h
[2]; result in words, concentration not stated at the place
  inhibition of gap junction-mediated dye transfer: most potent inhibitor
[2]; scrape loaded cells, pretreatment with oleamide
  dye transfer after scrape loading with Lucifer yellow: fully abrogated; also recorded: no dye spread to adjacent cells
BHK/β1 cells; 50 µM for 10 min
  effect on dye transfer: no dye transfer
BHK/β1 cells; 50 µM for 10 min, listed as Oleamide
  effect on dye transfer: rapidly and completely block dye transfer
BHK/β1 cells; 50 µM, 4 hours of treatment
  effect on dye transfer: completely blocked dye transfer
BHK/β1 cells; 50 µM, 4 hours of treatment, zinc induced sample
  dye transfer: 0.31 ± 0.24%
α1 connexin; 50 µM, 4 hours
  α1 connexin phosphorylation profile (P2 isoform): dramatic loss of the P2 isoform
α1 connexin; removal of oleamide, normal culture media for 4 hours
  reversibility of the effect on the α1 phosphorylation profile: proved reversible
Rat glial cells [3]
  mechanically-stimulated or glutamate-induced calcium wave propagation: no inhibitory effect
Rat glial cells [3]; 50 µM, preincubation from 10 minutes to 4 hours
  mechanically-induced calcium wave propagation: no impact; also recorded: indistinguishable manner from control cell populations
[4]
  sensitivity of gap junctional communication to the inhibitory action: not as sensitive
Rat glial cells [5]
  junctional electrical coupling: completely blocked; also recorded: completely uncoupled
  residual junctional conductance (upper limit): less than 50 pS
Rat glial cells [5]; n=5
  mean junctional conductance: 0.5 ± 0.7 nS
